Reference: patent publication US12264159B2, “Functionalized heterocycles as antiviral agents” (Enanta Pharmaceuticals, Inc., priority 2018, dated 2025)

Assays:
[1] = Compound induced cellular toxicity in HepG2 cells, ATPlite 1Step; format: cell-based; settings: human, three days exposure, 50% reduction of total ATP vs no drug controls
Description: At day 3, post seeding cells are treated with ATPlite 1Step according to the manufacturer's instructions.

[2] = tested on: HBV in 2.2.15 cells; assay: 2.2.15 cells: viral product in cell lysates quantified via quantitative real time PCR; format: cell-based, hepatitis B virus (HBV); settings: Hepatitis B virus, 120 h, day 5 post treatment, 50% reduction of viral product vs no drug controls, readout (qPCR, HBsAg or HBeAg) not specified for the column
Summary of the method: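 HBV product was measured at day 5 by lysate qPCR or by supernatant HBsAg/HBeAg ELISA, in 2.2.15 cells seeded at 35,000/well and exposed to 5-fold compound dilution series (0.5% DMSO). EC50 is 50% reduction of viral product relative to untreated controls.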

CC(C)[C@@H]1Cn2nc(C3CC3)c(-c3cccs3)c2-c2cc(=O)c(C(=O)O)cn21 [Example 131, (R)-2-cyclopropyl-6-isopropyl-10-oxo-1-(thiophen-2-yl)-5,6-dihydro-10H-pyrazolo[1,5-a]pyrido[2,1-c]pyrazine-9-carboxylic acid]
CC50 at 3 days [1]: > 25000 nM | EC50 [2]: < 100 nM

CC(C)(C)[C@@H]1Cn2nc(-c3cccc(F)c3)c(-c3cccc(F)c3)c2-c2cc(=O)c(C(=O)O)cn21 [Example 94, (R)-6-(tert-butyl)-1,2-bis(3-fluorophenyl)-10-oxo-5,6-dihydro-10H-pyrazolo[1,5-a]pyrido[2,1-c]pyrazine-9-carboxylic acid]
CC50 at 3 days [1]: > 25000 nM | EC50 [2]: < 100 nM

CC(C)[C@@H]1Cn2nc(-c3ccccc3)c(-c3ccccc3)c2-c2c(F)c(=O)c(C(=O)O)cn21 [Example 186, (R)-11-fluoro-6-isopropyl-10-oxo-1,2-diphenyl-5,6-dihydro-10H-pyrazolo[1,5-a]pyrido[2,1-c]pyrazine-9-carboxylic acid]
CC50 at 3 days [1]: > 25000 nM | EC50 [2]: < 100 nM

COCCOc1ccccc1-c1cc2n(n1)C[C@@H](C(C)(C)C)n1cc(C(=O)O)c(=O)cc1-2 [Example 79, (R)-6-(tert-butyl)-2-(2-(2-methoxyethoxy)phenyl)-10-oxo-5,6-dihydro-10H-pyrazolo[1,5-a]pyrido[2,2-c]pyrazine-12-carboxylic acid]
CC50 at 3 days [1]: > 25000 nM | EC50 [2]: < 100 nM

CC(C)(C)[C@@H]1Cn2ncc(-c3ccc4c(c3F)OCO4)c2-c2cc(=O)c(C(=O)O)cn21 [Example 122, (R)-6-(tert-butyl)-1-(4-fluorobenzo[d][1,3]dioxol-5-yl)-10-oxo-5,6-dihydro-10H-pyrazolo[1,5-a]pyrido[2,1-c]pyrazine-9-carboxylic acid]
CC50 at 3 days [1]: > 25000 nM | EC50 [2]: < 100 nM

COc1cccc(C)c1-c1cc2n(n1)C[C@@H](C(C)(C)C)n1cc(C(=O)O)c(=O)cc1-2 [Example 49, (R)-6-(tert-butyl)-2-(2-methoxy-6-methylphenyl)-10-oxo-5,6-dihydro-10H-pyrazolo[1,5-a]pyrido[2,2-c]pyrazine-12-carboxylic acid]
CC50 at 3 days [1]: > 25000 nM | EC50 [2]: 200 to 1000 nM

COc1ccc(OC)c(-c2cc3n(n2)C[C@@H](C(C)(C)C)n2cc(C(=O)O)c(=O)cc2-3)c1OC [Example 35, (R)-6-(tert-butyl)-10-oxo-2-(2,3,6-trimethoxyphenyl)-5,6-dihydro-10H-pyrazolo[1,5-a]pyrido[2,2-c]pyrazine-12-carboxylic acid]
CC50 at 3 days [1]: > 25000 nM | EC50 [2]: 200 to 1000 nM

CCCOc1ccccc1-c1cc2n(n1)C[C@@H](C(C)(C)C)n1cc(C(=O)O)c(=O)cc1-2 [Example 77, (R)-6-(tert-butyl)-10-oxo-2-(2-propoxyphenyl)-5,6-dihydro-10H-pyrazolo[1,5-a]pyrido[2,2-c]pyrazine-12-carboxylic acid]
CC50 at 3 days [1]: > 25000 nM | EC50 [2]: < 100 nM

CC(C)Oc1ccccc1-c1cc2n(n1)C[C@@H](C(C)(C)C)n1cc(C(=O)O)c(=O)cc1-2 [Example 82, (R)-6-(tert-butyl)-2-(2-isopropoxyphenyl)-10-oxo-5,6-dihydro-10H-pyrazolo[1,5-a]pyrido[2,2-c]pyrazine-12-carboxylic acid]
CC50 at 3 days [1]: > 25000 nM | EC50 [2]: < 100 nM

CCOc1ccc(OC)cc1-c1cc2n(n1)C[C@@H](C(C)(C)C)n1cc(C(=O)O)c(=O)cc1-2 [Example 37, (R)-6-(tert-butyl)-2-(2-ethoxy-5-methoxyphenyl)-10-oxo-5,6-dihydro-10H-pyrazolo[1,5-a]pyrido[2,2-c]pyrazine-12-carboxylic acid]
CC50 at 3 days [1]: > 25000 nM | EC50 [2]: < 100 nM

COc1ccc(OC)c(-c2cc3n(n2)C[C@@H](C(C)(C)C)n2cc(C(=O)O)c(=O)cc2-3)c1 [Example 32, (R)-6-(tert-butyl)-2-(2,5-dimethoxyphenyl)-10-oxo-5,6-dihydro-10H-pyrazolo[1,5-a]pyrido[2,2-c]pyrazine-12-carboxylic acid]
CC50 at 3 days [1]: > 25000 nM | EC50 [2]: < 100 nM

CC(C)[C@@H]1Cn2nc(C3CC3)c(-c3cccc(F)c3)c2-c2cc(=O)c(C(=O)O)cn21 [Example 134, (R)-2-cyclopropyl-1-(3-fluorophenyl)-6-isopropyl-10-oxo-5,6-dihydro-10H-pyrazolo[1,5-a]pyrido[2,1-c]pyrazine-9-carboxylic acid]
CC50 at 3 days [1]: > 25000 nM | EC50 [2]: < 100 nM

CC(C)(C)[C@@H]1Cn2nc(-c3ccccc3OC(F)(F)F)cc2-c2cc(=O)c(C(=O)O)cn21 [Example 24, (R)-6-(tert-butyl)-10-oxo-2-(2-(trifluoromethoxy)phenyl)-5,6-dihydro-10H-pyrazolo[1,5-a]pyrido[2,2-c]pyrazine-12-carboxylic acid]
CC50 at 3 days [1]: > 25000 nM | EC50 [2]: < 100 nM

CC(C)(C)[C@@H]1Cn2nc(-c3ccc(F)cc3)c(-c3ccc(F)cc3)c2-c2cc(=O)c(C(=O)O)cn21 [Example 91, (R)-6-(tert-butyl)-1,2-bis(4-fluorophenyl)-10-oxo-5,6-dihydro-10H-pyrazolo[1,5-a]pyrido[2,1-c]pyrazine-9-carboxylic acid]
CC50 at 3 days [1]: > 25000 nM | EC50 [2]: < 100 nM

CC(C)(C)[C@@H]1Cn2nc(-c3ccc(Cl)cc3)cc2-c2cc(=O)c(C(=O)O)cn21 [Example 13, (R)-6-(tert-butyl)-2-(4-chlorophenyl)-10-oxo-5,6-dihydro-10H-pyrazolo[1,5-a]pyrido[2,2-c]pyrazine-12-carboxylic acid]
CC50 at 3 days [1]: > 25000 nM | EC50 [2]: < 100 nM

CC(C)[C@@H]1Cn2nc(-c3ccccc3F)c(-c3ccccc3F)c2-c2cc(=O)c(C(=O)O)cn21 [Example 171, (R)-1,2-bis(2-fluorophenyl)-6-isopropyl-10-oxo-5,6-dihydro-10H-pyrazolo[1,5-a]pyrido[2,1-c]pyrazine-9-carboxylic acid]
CC50 at 3 days [1]: > 25000 nM | EC50 [2]: < 100 nM

COc1c(-c2cc3n(n2)C[C@@H](C(C)(C)C)n2cc(C(=O)O)c(=O)cc2-3)ccc(F)c1F [Example 69, (R)-6-(tert-butyl)-2-(3,4-difluoro-2-methoxyphenyl)-10-oxo-5,6-dihydro-10H-pyrazolo[1,5-a]pyrido[2,2-c]pyrazine-12-carboxylic acid]
CC50 at 3 days [1]: > 25000 nM | EC50 [2]: < 100 nM

CC(C)(C)[C@@H]1Cn2nc(-c3cc(F)ccc3F)cc2-c2cc(=O)c(C(=O)O)cn21 [Example 61, (R)-6-(tert-butyl)-2-(2,5-difluorophenyl)-10-oxo-5,6-dihydro-10H-pyrazolo[1,5-a]pyrido[2,2-c]pyrazine-12-carboxylic acid]
CC50 at 3 days [1]: > 25000 nM | EC50 [2]: < 100 nM

CC(C)[C@@H]1Cn2nc(C3CC3)c(-c3ccccc3F)c2-c2cc(=O)c(C(=O)O)cn21 [Example 129, (R)-2-cyclopropyl-1-(2-fluorophenyl)-6-isopropyl-10-oxo-5,6-dihydro-10H-pyrazolo[1,5-a]pyrido[2,1-c]pyrazine-9-carboxylic acid]
CC50 at 3 days [1]: > 25000 nM | EC50 [2]: < 100 nM

CC(C)(C)[C@@H]1Cn2nc(-c3cccc(F)c3)c(-c3cccc(F)c3)c2-c2cc(=O)c(-c3ncn[nH]3)cn21 [Example 193, (R)-6-(tert-butyl)-1,2-bis(3-fluorophenyl)-9-(1H-1,2,4-triazol-5-yl)-5,6-dihydro-10H-pyrazolo[1,5-a]pyrido[2,1-c]pyrazin-10-one]
CC50 at 3 days [1]: > 25000 nM | EC50 [2]: < 100 nM

Cc1ccc(-c2cnn3c2-c2cc(=O)c(C(=O)O)cn2[C@H](C(C)(C)C)C3)cc1 [Example 126, (R)-6-(tert-butyl)-10-oxo-1-(p-tolyl)-5,6-dihydro-10H-pyrazolo[1,5-a]pyrido[2,1-c]pyrazine-9-carboxylic acid]
CC50 at 3 days [1]: > 25000 nM | EC50 [2]: < 100 nM

CC(C)(C)[C@@H]1Cn2ncc(-c3ccccc3)c2-c2cc(=O)c(C(=O)O)cn21 [Example 107, (R)-6-(tert-butyl)-10-oxo-1-phenyl-5,6-dihydro-10H-pyrazolo[1,5-a]pyrido[2,1-c]pyrazine-9-carboxylic acid]
CC50 at 3 days [1]: < 10000 nM | EC50 [2]: < 100 nM

CC(C)(C)[C@@H]1Cn2nc(-c3ccoc3)c(-c3ccoc3)c2-c2cc(=O)c(C(=O)O)cn21 [Example 96, (R)-6-(tert-butyl)-1,2-di(furan-3-yl)-10-oxo-5,6-dihydro-10H-pyrazolo[1,5-a]pyrido[2,1-c]pyrazine-9-carboxylic acid]
CC50 at 3 days [1]: > 25000 nM | EC50 [2]: < 100 nM

CC(C)(C)[C@@H]1Cn2nc(-c3ccc(F)c(F)c3)cc2-c2cc(=O)c(C(=O)O)cn21 [Example 60, (R)-6-(tert-butyl)-2-(3,4-difluorophenyl)-10-oxo-5,6-dihydro-10H-pyrazolo[1,5-a]pyrido[2,2-c]pyrazine-12-carboxylic acid]
CC50 at 3 days [1]: > 25000 nM | EC50 [2]: < 100 nM

CC(C)(C)[C@@H]1Cn2nc(-c3cccc4c3OCCO4)cc2-c2cc(=O)c(C(=O)O)cn21 [Example 57, (R)-6-(tert-butyl)-2-(2,3-dihydrobenzo[b][1,4]dioxin-5-yl)-10-oxo-5,6-dihydro-10H-pyrazolo[1,5-a]pyrido[2,2-c]pyrazine-12-carboxylic acid]
CC50 at 3 days [1]: > 25000 nM | EC50 [2]: < 100 nM

CCOc1ccccc1-c1cc2n(n1)C[C@@H](C(C)(C)C)n1cc(C(=O)O)c(=O)cc1-2 [Example 48, (R)-6-(tert-butyl)-2-(2-ethoxyphenyl)-10-oxo-5,6-dihydro-10H-pyrazolo[1,5-a]pyrido[2,2-c]pyrazine-12-carboxylic acid]
CC50 at 3 days [1]: > 25000 nM | EC50 [2]: < 100 nM

CC(C)(C)[C@@H]1Cn2nc(-c3cnc(NC4CC4)nc3)cc2-c2cc(=O)c(C(=O)O)cn21 [Example 15, (R)-6-(tert-butyl)-2-(2-(cyclopropylamino)pyrimidin-5-yl)-10-oxo-5,6-dihydro-10H-pyrazolo[1,5-a]pyrido[2,2-c]pyrazine-12-carboxylic acid]
CC50 at 3 days [1]: > 25000 nM | EC50 [2]: < 100 nM
